Measured values reported in PMC3388095, “Fluorophore Labeled Kinase Detects Ligands That Bind within the MAPK Insert of p38α Kinase” (PLoS ONE, 2012).

Experiments:
Test in all cases: Kinase selectivity profile, 33P-ATP filter-binding assay
Format in all cases: biochemical
MST4 = MST4 (Homo sapiens, UniProt Q9P289)
Procedure: (§1) Figure 5 Kinase selectivity profile of 1b. Compound 1b was profiled against a selected panel of 95 different kinases at a concentration of 10 µM employing a radioactive (^33P-ATP) filter-binding assay (National Centre for Protein Kinase Profiling, Dundee). The numbers represent the remaining kinase activity in %. […] TEXT PRINTED IN THE PICTURE: no label printed: Aurora B: 53; MNK2: 67; MINK1: 69; HER4: 71; MKK1: 75; PKBβ: 75; PHK: 76; PIM2: 76; PIM3: 77; CHK2: 78; PKD1: 79; TBK1: 79; PAK4: 80; Lck: 80; GSK3β: 80; IGF-1R: 81; p38δ MAPK: 81; PIM1: 82; SRPK1: 83; SmMLCK: 83; MAPKAP-K3: 84; EPH A2: 85; MELK: 85; CK2: 85; CK1: 86; CAMK1: 86; PLK1: 87; MST2: 87; IR-HIS: 87; BTK: 87; HIPK1: 87; p38α MAPK: 88; DYRK2: 88; JNK3: 88; PAK5: 88; IKKε: 89; p38β MAPK: 89; NUAK1: 90; PAK2: 90; MNK1: 91; ERK8: 91; GCK: 91; PRAK: 91; MLK1: 92; SGK1: 92; PAK6: 92; TTK: 92; BRSK2: 92; MARK4: 93; CHK1: 93; RIPK2: 94; CDK2-Cyclin A: 94; JNK1: 94; AMPK: 94; VEG-FR: 95; DYRK1A: 95; CAMKKβ: 95; PKCα: 96; S6K1: 96; MSK1: 96; PKCz: 96; YES1: 96; RSK1: 97; IRAK4: 97; DYRK3: 97; IKKβ: 97; ERK2: 98; MLK3: 98; RSK2: 98; LKB1: 98; MAPKAP-K2: 98; ERK1: 99; FGF-R1: 99; SYK: 99; MST4: 99; MARK3: 99; MARK2: 100; PDK1: 100; JNK2: 101; HIPK2: 101; BRSK1: 102; EF2K: 102; PRK2: 103; Aurora A: 104; IRR: 104; CSK: 104; PKA: 104; NEK6: 105; p38γ MAPK: 105; Src: 107; PKBα: 109; ROCK 2: 109; EPH-B3: 112; HIPK3: 115; NEK2α: 119 DOUBTS OF THE COPYIST ABOUT THIS PICTURE: The picture prints no compound label and no measure or unit for the numbers; only the colour scale 'Inhibition weak/strong' is printed. / PKCz: the last letter may be z or ζ / NEK2α: the last letter may be a or α / IKKε: the last letter may be ε or e

MST2 = MST2 (Homo sapiens, UniProt Q13188)
Procedure: as §1

MAPKAP-K2 = MAPKAP-K2 (Homo sapiens, UniProt P49137)
Procedure: as §1

HER4 = HER4 (Homo sapiens, UniProt Q15303)
Procedure: as §1

SGK1 = SGK1 (Homo sapiens, UniProt O00141)
Procedure: as §1

PRK2 = PRK2 (Homo sapiens, UniProt Q16513)
Procedure: as §1

RSK2 = RSK2 (Homo sapiens, UniProt P51812)
Procedure: as §1

CAMK1 = CAMK1 (Homo sapiens, UniProt Q14012)
Procedure: as §1

CSK = CSK (Homo sapiens, UniProt P41240)
Procedure: as §1

GCK = GCK (Homo sapiens, UniProt Q12851)
Procedure: as §1

ERK8 = ERK8 (Homo sapiens, UniProt Q8TD08)
Procedure: as §1

MLK1 = MLK1 (Homo sapiens, UniProt P80192)
MLK1, sequence (P80192 whole entry): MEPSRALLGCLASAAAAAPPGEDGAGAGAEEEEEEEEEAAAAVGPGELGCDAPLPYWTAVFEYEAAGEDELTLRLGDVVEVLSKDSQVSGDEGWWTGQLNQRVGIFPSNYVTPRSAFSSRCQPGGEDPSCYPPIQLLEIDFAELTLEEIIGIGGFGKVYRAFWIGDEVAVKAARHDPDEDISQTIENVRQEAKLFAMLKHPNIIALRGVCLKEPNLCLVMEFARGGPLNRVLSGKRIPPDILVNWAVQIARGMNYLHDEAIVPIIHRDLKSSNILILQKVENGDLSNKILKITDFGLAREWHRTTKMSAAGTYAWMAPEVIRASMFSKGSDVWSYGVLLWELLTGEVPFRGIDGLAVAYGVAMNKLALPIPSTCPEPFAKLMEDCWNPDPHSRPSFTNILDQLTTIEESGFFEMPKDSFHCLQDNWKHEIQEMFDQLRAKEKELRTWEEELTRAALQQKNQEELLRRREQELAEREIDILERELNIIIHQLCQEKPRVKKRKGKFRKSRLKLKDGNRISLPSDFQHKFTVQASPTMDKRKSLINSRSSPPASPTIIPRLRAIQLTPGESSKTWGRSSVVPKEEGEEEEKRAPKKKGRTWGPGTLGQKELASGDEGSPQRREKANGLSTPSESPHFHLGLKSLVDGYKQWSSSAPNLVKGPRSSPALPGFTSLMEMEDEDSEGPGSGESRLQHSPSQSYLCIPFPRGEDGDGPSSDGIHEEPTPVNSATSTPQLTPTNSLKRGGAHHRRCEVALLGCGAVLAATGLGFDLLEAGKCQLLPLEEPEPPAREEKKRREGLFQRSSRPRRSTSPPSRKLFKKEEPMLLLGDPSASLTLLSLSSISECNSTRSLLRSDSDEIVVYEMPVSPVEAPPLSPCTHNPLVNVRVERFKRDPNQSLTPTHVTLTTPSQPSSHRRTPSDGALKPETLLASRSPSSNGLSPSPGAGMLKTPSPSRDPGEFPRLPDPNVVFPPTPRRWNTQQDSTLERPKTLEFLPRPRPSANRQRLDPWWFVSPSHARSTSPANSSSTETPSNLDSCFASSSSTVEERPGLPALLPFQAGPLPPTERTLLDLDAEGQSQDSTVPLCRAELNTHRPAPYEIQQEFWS
Procedure: as §1

CDK2-Cyclin A = CDK2-Cyclin A (Homo sapiens, UniProt P24941)
Procedure: as §1

RIPK2 = RIPK2 (Homo sapiens, UniProt O43353)
Procedure: as §1

NEK6 = NEK6 (Homo sapiens, UniProt Q9HC98)
Procedure: as §1

MARK4 = MARK4 (Homo sapiens, UniProt Q96L34)
Procedure: as §1

NUAK1 = NUAK1 (Homo sapiens, UniProt O60285)
NUAK1, sequence (O60285 whole entry): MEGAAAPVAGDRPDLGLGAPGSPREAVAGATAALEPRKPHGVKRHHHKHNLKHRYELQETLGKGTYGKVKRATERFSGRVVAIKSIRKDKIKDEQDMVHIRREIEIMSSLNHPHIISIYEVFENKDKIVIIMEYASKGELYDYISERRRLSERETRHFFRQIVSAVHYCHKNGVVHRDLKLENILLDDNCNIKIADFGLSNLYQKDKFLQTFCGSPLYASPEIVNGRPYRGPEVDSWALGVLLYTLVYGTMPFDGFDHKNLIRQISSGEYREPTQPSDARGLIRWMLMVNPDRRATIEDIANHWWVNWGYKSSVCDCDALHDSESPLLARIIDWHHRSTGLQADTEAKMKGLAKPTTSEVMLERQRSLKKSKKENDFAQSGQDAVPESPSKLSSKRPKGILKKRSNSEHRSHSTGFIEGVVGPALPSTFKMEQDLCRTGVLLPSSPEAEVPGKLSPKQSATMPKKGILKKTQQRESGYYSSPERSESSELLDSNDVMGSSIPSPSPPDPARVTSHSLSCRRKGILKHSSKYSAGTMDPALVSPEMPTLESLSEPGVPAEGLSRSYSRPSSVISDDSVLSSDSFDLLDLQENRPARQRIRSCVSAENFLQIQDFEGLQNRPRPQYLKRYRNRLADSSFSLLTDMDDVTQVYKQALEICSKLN
Procedure: as §1

IKKβ = IKKβ (Homo sapiens, UniProt O14920)
Procedure: as §1

DYRK3 = DYRK3 (Homo sapiens, UniProt O43781)
DYRK3, sequence (O43781 whole entry): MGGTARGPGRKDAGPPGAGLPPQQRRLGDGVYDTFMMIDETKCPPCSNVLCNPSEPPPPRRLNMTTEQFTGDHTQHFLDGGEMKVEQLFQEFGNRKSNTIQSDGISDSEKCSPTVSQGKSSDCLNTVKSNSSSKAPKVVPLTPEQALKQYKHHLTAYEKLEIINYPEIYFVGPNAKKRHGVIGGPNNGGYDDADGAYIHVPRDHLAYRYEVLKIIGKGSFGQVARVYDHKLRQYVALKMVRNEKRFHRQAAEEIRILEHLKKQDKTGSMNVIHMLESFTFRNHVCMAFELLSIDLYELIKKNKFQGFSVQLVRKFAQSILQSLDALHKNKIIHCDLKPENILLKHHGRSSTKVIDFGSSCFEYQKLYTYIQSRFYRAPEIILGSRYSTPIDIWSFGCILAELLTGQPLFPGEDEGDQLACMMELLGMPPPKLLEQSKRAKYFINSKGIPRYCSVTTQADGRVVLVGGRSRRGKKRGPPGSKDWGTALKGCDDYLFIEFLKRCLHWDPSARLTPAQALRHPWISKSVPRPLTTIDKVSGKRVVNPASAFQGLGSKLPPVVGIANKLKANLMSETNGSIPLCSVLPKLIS
Procedure: as §1

MLK3 = MLK3 (Homo sapiens, UniProt Q16584)
Procedure: as §1

PKA = PKA (Homo sapiens, UniProt P17612)
Procedure: as §1

CHK2 = CHK2 (Homo sapiens, UniProt O96017)
CHK2, sequence (O96017 whole entry): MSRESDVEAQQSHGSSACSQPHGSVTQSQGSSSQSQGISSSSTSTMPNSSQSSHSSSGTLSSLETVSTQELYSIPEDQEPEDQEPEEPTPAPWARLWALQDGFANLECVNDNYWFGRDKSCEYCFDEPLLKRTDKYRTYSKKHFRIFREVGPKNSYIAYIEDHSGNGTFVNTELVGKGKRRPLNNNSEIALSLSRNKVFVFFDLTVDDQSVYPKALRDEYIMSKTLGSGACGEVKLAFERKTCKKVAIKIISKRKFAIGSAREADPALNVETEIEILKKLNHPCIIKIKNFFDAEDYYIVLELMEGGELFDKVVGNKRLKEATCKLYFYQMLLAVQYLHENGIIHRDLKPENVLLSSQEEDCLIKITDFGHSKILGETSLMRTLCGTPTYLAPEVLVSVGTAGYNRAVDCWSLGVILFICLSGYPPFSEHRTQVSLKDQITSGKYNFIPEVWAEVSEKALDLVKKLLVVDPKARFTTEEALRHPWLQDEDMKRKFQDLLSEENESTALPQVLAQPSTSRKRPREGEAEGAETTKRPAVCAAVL
Procedure: as §1

YES1 = YES1 (Homo sapiens, UniProt P07947)
Procedure: as §1

TBK1 = TBK1 (Homo sapiens, UniProt Q9UHD2)
TBK1, sequence (Q9UHD2 whole entry): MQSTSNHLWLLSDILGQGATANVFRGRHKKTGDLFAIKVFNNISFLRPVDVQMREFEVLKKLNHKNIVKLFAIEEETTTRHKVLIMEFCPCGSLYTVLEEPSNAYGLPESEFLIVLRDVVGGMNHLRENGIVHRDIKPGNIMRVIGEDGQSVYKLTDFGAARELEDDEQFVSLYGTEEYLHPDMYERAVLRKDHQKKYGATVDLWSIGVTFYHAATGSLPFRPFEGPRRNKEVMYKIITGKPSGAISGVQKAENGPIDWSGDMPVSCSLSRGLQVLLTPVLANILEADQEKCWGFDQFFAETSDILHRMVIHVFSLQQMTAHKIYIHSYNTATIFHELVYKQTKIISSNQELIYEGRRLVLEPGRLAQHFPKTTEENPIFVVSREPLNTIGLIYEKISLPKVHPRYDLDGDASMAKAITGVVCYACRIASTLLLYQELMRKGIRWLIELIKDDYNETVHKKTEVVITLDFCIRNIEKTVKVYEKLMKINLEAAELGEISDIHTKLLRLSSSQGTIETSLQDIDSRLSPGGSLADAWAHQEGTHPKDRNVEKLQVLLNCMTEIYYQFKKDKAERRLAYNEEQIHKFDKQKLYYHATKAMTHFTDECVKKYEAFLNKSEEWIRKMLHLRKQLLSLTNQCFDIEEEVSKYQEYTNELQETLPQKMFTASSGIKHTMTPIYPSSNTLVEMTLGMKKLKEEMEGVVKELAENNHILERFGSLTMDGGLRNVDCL
Procedure: as §1

PDK1 = PDK1 (Homo sapiens, UniProt O15530)
Procedure: as §1

Aurora B = Aurora B (Homo sapiens, UniProt Q96GD4)
Procedure: as §1

VEG-FR = VEG-FR (Homo sapiens, UniProt P17948)
VEG-FR, sequence (P17948 27-1338): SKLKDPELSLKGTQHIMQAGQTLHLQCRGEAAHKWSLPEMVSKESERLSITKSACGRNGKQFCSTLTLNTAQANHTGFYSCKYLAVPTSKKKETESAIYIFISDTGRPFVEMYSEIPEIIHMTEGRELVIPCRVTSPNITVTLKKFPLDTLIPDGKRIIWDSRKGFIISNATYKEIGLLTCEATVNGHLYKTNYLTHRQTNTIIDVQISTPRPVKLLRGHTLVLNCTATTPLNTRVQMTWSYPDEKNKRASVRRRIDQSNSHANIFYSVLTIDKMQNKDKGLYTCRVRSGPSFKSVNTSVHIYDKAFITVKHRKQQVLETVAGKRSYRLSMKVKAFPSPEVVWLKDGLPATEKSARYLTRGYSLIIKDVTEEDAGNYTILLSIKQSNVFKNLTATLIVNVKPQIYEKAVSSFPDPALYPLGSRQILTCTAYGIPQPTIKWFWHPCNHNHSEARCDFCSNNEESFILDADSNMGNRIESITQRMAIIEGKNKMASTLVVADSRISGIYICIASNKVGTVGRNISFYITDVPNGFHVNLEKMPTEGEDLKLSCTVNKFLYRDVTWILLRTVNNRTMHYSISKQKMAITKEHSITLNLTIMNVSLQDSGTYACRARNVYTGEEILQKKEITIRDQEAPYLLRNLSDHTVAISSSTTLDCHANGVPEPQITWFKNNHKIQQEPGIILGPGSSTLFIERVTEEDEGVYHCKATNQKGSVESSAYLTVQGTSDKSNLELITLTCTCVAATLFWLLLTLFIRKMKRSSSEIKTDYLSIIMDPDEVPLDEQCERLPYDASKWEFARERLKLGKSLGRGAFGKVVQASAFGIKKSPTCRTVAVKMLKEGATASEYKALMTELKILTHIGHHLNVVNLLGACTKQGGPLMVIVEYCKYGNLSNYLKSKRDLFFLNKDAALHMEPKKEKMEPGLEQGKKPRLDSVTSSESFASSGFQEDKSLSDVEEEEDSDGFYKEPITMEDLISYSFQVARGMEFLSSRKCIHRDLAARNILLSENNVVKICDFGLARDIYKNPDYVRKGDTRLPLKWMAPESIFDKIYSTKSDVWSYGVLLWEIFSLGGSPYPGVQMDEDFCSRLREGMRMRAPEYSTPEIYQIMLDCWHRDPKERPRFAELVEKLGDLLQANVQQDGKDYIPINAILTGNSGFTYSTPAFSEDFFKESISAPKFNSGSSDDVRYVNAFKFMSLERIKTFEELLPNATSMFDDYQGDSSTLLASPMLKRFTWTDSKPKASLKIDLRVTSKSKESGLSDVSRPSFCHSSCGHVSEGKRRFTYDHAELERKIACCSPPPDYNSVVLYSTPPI
Procedure: as §1

Nc1ccc2c(NC3CC3)nc(-c3ccccc3)nc2c1 [1b, N^4-Cyclopropyl-2-phenyl-4,7-quinazolinediamine]
remaining activity at 10 µM (MST4): 99%
remaining activity at 10 µM (MST2): 87%
remaining activity at 10 µM (MAPKAP-K2): 98%
remaining activity at 10 µM (HER4): 71%
remaining activity at 10 µM (SGK1): 92%
remaining activity at 10 µM (PRK2): 103%
remaining activity at 10 µM (RSK2): 98%
remaining activity at 10 µM (CAMK1): 86%
remaining activity at 10 µM (CSK): 104%
remaining activity at 10 µM (GCK): 91%
remaining activity at 10 µM (ERK8): 91%
remaining activity at 10 µM (MLK1): 92%
remaining activity at 10 µM (CDK2-Cyclin A): 94%
remaining activity at 10 µM (RIPK2): 94%
remaining activity at 10 µM (NEK6): 105%
remaining activity at 10 µM (MARK4): 93%
remaining activity at 10 µM (NUAK1): 90%
remaining activity at 10 µM (IKKβ): 97%
remaining activity at 10 µM (DYRK3): 97%
remaining activity at 10 µM (MLK3): 98%
remaining activity at 10 µM (PKA): 104%
remaining activity at 10 µM (CHK2): 78%
remaining activity at 10 µM (YES1): 96%
remaining activity at 10 µM (TBK1): 79%
remaining activity at 10 µM (PDK1): 100%
remaining activity at 10 µM (Aurora B): 53%
remaining activity at 10 µM (VEG-FR): 95%
